Read-outs that look alike come from different tables or passages of the source. *1 amine or outer side, *2 acyl side, *3 side chain or, on linkers, in order; H or OH if unused. Where a SMILES comes first, the peptide text is derived from it. Bridges are numbered along the chain shown (N, C = ends). Roman numbers before positions name the chains, in order. [ ]: non-standard residue; d: D form. Actinocin(9to1) = Cc1c2oc3c(C)ccc(C(=O)[*:1])c3nc-2c(C(=O)[*:2])c(N)c1=O; NMeV = CN[C@H](C(=O)O)C(C)C; Sar = CNCC(=O)O
Experiments:
[1] = human, in vivo; cited from earlier work
[2] = tested on: rats; conditions: rat, in vivo
[3] = rat, in vivo
[4] = tested on: rats; conditions: rat, in vivo; remark: listed apart in the source
[5] = rat, in vivo; remark: listed apart in the source
[6] = tested on: rats; conditions: rat, in vivo; remark: listed apart in the source
[7] = male, Charles Rivers CD (Sprague-Dawley)

For `CO[C@@H]1[C@H](O)C[C@@H](O[C@@H]2C[C@H](Oc3cc4cc5c(c(O)c4c(O)c3C)C(=O)[C@@H](O[C@H]3C[C@@H](O[C@H]4C[C@@H](O[C@H]6C[C@](C)(O)[C@@H](OC(C)=O)[C@H](C)O6)[C@H](O)[C@@H](C)O4)[C@H](O)[C@@H](C)O3)[C@H]([C@H](OC)C(=O)[C@@H](O)[C@@H](C)O)C5)O[C@H](C)[C@@H]2OC(C)=O)O[C@@H]1C` [Chromomycin A3], the “Acute Local tissue Effects (infiltration)” value [1] is listed as “Sever tissue sloughing” and the “Frequency of Phlebitis” value [1] is listed as “Frequent”.
For `COc1cccc2c1C(=O)c1c(O)c3c(c(O)c1C2=O)C[C@@](O)(C(=O)CO)C[C@@H]3O[C@H]1C[C@H](N)[C@H](O)[C@H](C)O1` [Doxorubicin, 10-[(3-amino-2,3,6-tri-deoxy-α-L-lyxo-hexopyransoyl)oxy]-7,8,9,10-tetrahydro-6,8,-11-trihydroxy-8-(hydroxyacetyl)-1-methyoxy-5,12-naphthacenedione], the “Frequency of Phlebitis” value [1] is given as “Frequent”, the rats with lesions [2, 7] is given as “all 8” and the “rats with necrotic lesions of the skin” value [2, 7] is given as “all 8”. For the same molecule, the “effect on body weight” value [3] was “no adverse effect on body weight”.
In the case of `CC(=O)[C@]1(O)Cc2c(O)c3c(c(O)c2[C@@H](O[C@H]2C[C@H](N)[C@H](O)[C@H](C)O2)C1)C(=O)c1ccccc1C3=O` [Idarubicin], the “Frequency of Phlebitis” value [1] is given as “Frequent”.
In the case of `CC(=O)O[C@H]1C(=O)[C@@]2(C)[C@H]([C@H](OC(=O)c3ccccc3)[C@]3(O)C[C@H](OC(=O)[C@H](O)[C@@H](NC(=O)c4ccccc4)c4ccccc4)C(C)=C1C3(C)C)[C@]1(OC(C)=O)CO[C@@H]1C[C@@H]2O` [Taxol CV, Taxol], the rats with lesions ([4]; male, Charles Rivers CD) is reported as “all 8”.
In the case of `COc1cc([C@@H]2c3cc4c(cc3[C@@H](O[C@@H]3O[C@@H]5CO[C@@H](c6cccs6)O[C@H]5[C@H](O)[C@H]3O)[C@H]3COC(=O)[C@H]23)OCO4)cc(OC)c1O` [Tenoposide], the “Frequency of Phlebitis” value [1] is listed as “Frequent”.
For `CC[C@]1(O)C[C@H]2CN(CCc3c([nH]c4ccccc34)[C@@](C(=O)OC)(c3cc4c(cc3OC)N(C=O)[C@H]3[C@@](O)(C(=O)OC)[C@H](OC(C)=O)[C@]5(CC)C=CCN6CC[C@]43[C@@H]65)C2)C1` [Vincristine, 22-Oxoyincaleukoblastine], the “Frequency of Phlebitis” value [1] is given as “Infrequent”.
For `CN(C)/N=N/c1[nH]cnc1C(N)=O` [dacarbazine], the “Acute Local tissue Effects (infiltration)” value [1] is listed as “Pain, mild inflammation,” and the “Frequency of Phlebitis” value [1] is listed as “Frequent”.
In the case of `Cc1c2oc3c(C)ccc(C(=O)N[C@@H]4C(=O)N[C@H](C(C)C)C(=O)N5CCC[C@H]5C(=O)N(C)CC(=O)N(C)[C@@H](C(C)C)C(=O)O[C@@H]4C)c3nc-2c(C(=O)N[C@@H]2C(=O)N[C@H](C(C)C)C(=O)N3CCC[C@H]3C(=O)N(C)CC(=O)N(C)[C@@H](C(C)C)C(=O)O[C@@H]2C)c(N)c1=O` [dactinomycin] (I: T[dV]P[Sar][NMeV] / II: T[dV]P[Sar][NMeV]; ester I:1-I:C, II:1-II:C; linker I:N-II:N via Actinocin(9to1)), the “Frequency of Phlebitis” value [1] is given as “Frequent”.
For `COc1cccc2c1C(=O)c1c(O)c3c(c(O)c1C2=O)C[C@@](O)(C(C)=O)C[C@@H]3O[C@H]1C[C@H](N)[C@H](O)[C@H](C)O1` [daunorubicin], the “Frequency of Phlebitis” value [1] is given as “Frequent”.
For `CO[C@@]12[C@H](COC(N)=O)C3=C(C(=O)C(C)=C(N)C3=O)N1C[C@@H]1N[C@@H]12` [mitomycin-c], the rats died ([5]; male) was “Five of 12” and the “loss of initial body weight” value [5] was “about 25%”.
In the case of `CN(N=O)C(=O)N[C@@H](C=O)[C@@H](O)[C@H](O)[C@H](O)CO` [streptozocin], the “Frequency of Phlebitis” value [1] is given as “Infrequent”.
With hydroxypropyl-β-cyclodextrin [HPCD] the lesions caused [4] was “no lesions”, the lesion size [6] was 3.5 mm and the “diameter of the lesion in the one remaining animal” value [2] was 0.3 cm. The “rats with no lesion at any sampling time” value [2] was 7 of 8 and the “effect on body weight” value [3] was “no effect on body weight”.

— patent publication US6583125B2 (priority 1992, dated 2003)
